This note sets out measurements from US12054497B2, “Substituted heterocyclic fused cyclic compound, preparation method therefor and pharmaceutical use thereof” (GENFLEET THERAPEUTICS (SHANGHAI) INC., priority 2019, dated 2024).

Experiment [1] deals with A549 cells with Kras G12S mutation. Put plainly: Cell proliferation inhibition experiment, 3D spheroid, CellTiter-Glo (Test Example 1). The format is cell-based, human. Particulars: 5 days. In a few lines:
(§1)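 NCI-H358 (800 cells/well) and A549 (400 cells/well) grown overnight as 3D spheroids in 2% FBS medium, then exposed to compound dilution series (3.16-fold, 0.1% DMSO) for 5 days. CellTiter-Glo luminescence read; inhibition relative to DMSO and blank, IC50 by four-parameter fit.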

In experiment [2] the test system is NCI-H358 cells with Kras G12C mutation. Described as above. Particulars: 5 days. The experiment is classed as cell-based, human. In a few lines: as §1
The subject of experiment [3] is phosphorylated ERK in MIA PaCa2 cells with Kras G12C mutation. Put plainly: p-ERK HTRF assay for cells (Test Example 2). The format is cell-based, human. In a few lines: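 MIA PaCa2 cells (2.5E4/well, seeded overnight) treated 2 h with compound in a 3.16-fold series at 0.1% DMSO. Cells lysed 30 min; p-ERK read by HTRF after 4 h antibody incubation. Inhibition relative to DMSO and blank; IC50 by four-parameter fit.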
(In TR-FRET formats the signal depends on donor and acceptor labels being close together.)

Experiment [4] relates to MIA PaCa-2 cells with Kras G12C mutation. Put plainly: Cell proliferation inhibition experiment, 3D spheroid, CellTiter-Glo (Test Example 3). The experiment is classed as cell-based, human. As to conditions: 5 days, read-out: MIA-PaCa2 IC50. In a few lines: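 MIA PaCa-2 spheroids (200 cells/well) were formed overnight, then exposed for 5 days to compounds in 3.16-fold dilutions at 0.1% DMSO. Viability was read by CellTiter-Glo luminescence, and inhibition was normalised to DMSO control and medium blank. IC50 came from a four-parameter fit.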
For orientation: Cellular ATP, detected with luciferase, serves as a proxy for viable cell number.

The target in the next experiment is KRas G12C (Homo sapiens (Human), UniProt P01116, G12C). Put plainly: Nucleotide exchange assay (NEA)-HTRF, SOS1 catalyzed displacement of GDP by GTP (Test Example 4). The format is biochemical. Here is the method:
The effects of compounds on SOS1 catalyzed displacement of GDP by GTP on KRas proteins was examined by homogeneous time-resolved fluorescence (HTRF). 30 μM 6×his labeled KRas G12C recombinant protein and 80 μM fluorochrome DY647 labeled GDP were co-incubated in a labeling buffer (1 mM DTT, 7.5 mM EDTA, 25 mM Tris-HCl, 45 mM NaCl) at 20° C. away from light for 2 hours. Protein quantification was performed after purification on the NAP-5 column to determine the concentration of KRas G12C-GDP.
1000× stock solutions of compounds at a concentration gradient of 3.16 were prepared by using DMSO, and diluted 250 times by a reaction buffer (40 mM N-2-hydroxyethylpiperazine-N-2-ethane sulfonic acid (HEPES), 10 mM MgCl2, 1 mM DTT, 0.002% Triton X-100) into 4× stock solutions of compounds. KRas G12C-GDP/Tb working solution (40 nM KRas G12C-GDP, 1×anti-his Tb) and SOS1/GTP working solution (0.2 μM SOS1, 200 μM GTP) were prepared by using the reaction buffer.
5 μl of 4×stock solution of a compound and 10 μl of KRas G12C-GDP/T working solution were added to each well of 96-well plate with white unclear bottom, and 5 μl of reaction buffer was added to the well of control group in stead of the 4×stock solution of a compound. After incubation at 20° C. away from light for 15 minutes, 5 μl of SOS1/GTP working solution was added and incubated at 20° C. away from light for 2 hours, and then a value of fluorescence intensity was read (excitation wavelength: 320 nm, and emission wavelengths: 615 nm and 665 nm). Besides, group TO was established with 10 μl of the reaction buffer and 10 μl of the KRas G12C-GDP/Tb working solution, and the value of fluorescence intensity was directly read. A relative light unit (RLU) was calculated by the following equation: RLU=(665 nm signal/615 nm signal)×10^4; and the inhibition rate (IR) of the compound was calculated by the following equation: IR (%)=(RLUcompound−RLUcontrol)/(RLUT0−RLUcontrol)×100%. The value of IC50 was calculated by fitting a gradiently diluted concentration of the compound and the corresponding cell proliferation inhibition rate using a four-parameter method.

The mark [5] stands for this setting: Homo sapiens, MIA PaCa-2, 2 h, MIA PaCa2 cells, 2 hours with compound, read-out: p-ERK IC50.
[6] abbreviates: MIA PaCa2 cells, 2 hours with compound, read-out: p-ERK IC50.
[7] abbreviates: Homo sapiens, MIA PaCa-2, 120 h.
Setting [8] is: Homo sapiens, MIA PaCa-2, 2 h, read-out: p-ERK IC50, MIA PaCa2 cells, 2 hours with compound.

The structures appear in SMILES notation. Where two headings read alike, the source gives them in different places.

Sequence of KRas G12C (P01116-2 other isoform, or with tags, fused parts or gaps G12C): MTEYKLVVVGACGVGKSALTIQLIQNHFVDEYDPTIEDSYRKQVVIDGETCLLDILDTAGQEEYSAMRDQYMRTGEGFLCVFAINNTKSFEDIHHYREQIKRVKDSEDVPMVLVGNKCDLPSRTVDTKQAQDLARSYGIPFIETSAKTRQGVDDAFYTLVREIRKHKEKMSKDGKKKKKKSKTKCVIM

In general, IC50 refers to the concentration that inhibits the measured activity by half. For `C=CC(=O)N1C[C@@H]2C(=O)N(C)c3c(c4cc(F)c(-c5c(O)cccc5F)nc4n(-c4c(C)cnn4C(C)C)c3=O)N2C[C@H]1C` (single isomer, unassigned) [Compound Z33-2], the IC50 in experiment [1] (Homo sapiens, A549, 120 h) is above 30000 nM; in experiment [2] it was 34 nM; in experiment [3] (setting [5]), 238 nM; in experiment [4], 48 nM; on KRas G12C, 162 nM.

For the molecule `C=CC(=O)N1C[C@@H]2C(=O)N(C)c3c(c4cc(Cl)c(-c5c(O)cccc5F)c(F)c4n(-c4c(C(C)C)ncnc4C(C)C)c3=O)N2C[C@H]1C` (single isomer, unassigned) [Compound Z50-1], the half-inhibitory concentration (IC50) in experiment [1] was above 30000 nM; in experiment [2], 0.3 nM; in experiment [3] (setting [6]) it was 6 nM; in experiment [4] (setting [7]), 1 nM; on KRas G12C it was 8 nM.

For the molecule `C=CC(=O)N1CCN2c3c(c(=O)n(-c4c(C)ncnc4C(C)C)c4nc(-c5c(O)cccc5F)c(F)cc34)N(C)C(=O)[C@H]2C1` [Compound Z21, (4aR)-3-acryloyl-11-fluoro-10-(2-fluoro-6-hydroxyphenyl)-8-(4-isopropyl-6-methylpyrimidin-5-yl)-6-methyl-2,3,4,4a,6,8-hexahydro-1H-pyrazino[1′,2′:4,5]pyrazino[2,3-c][1,8]naphthyridin-5,7-dione], the IC50 was above 30000 nM in experiment [1] (Homo sapiens, A549, 120 h); 23 nM in experiment [2] (Homo sapiens, NCI-H358, 120 h); 271 nM in experiment [3] (setting [5]); 47 nM in experiment [4] (setting [7]); 388 nM on KRas G12C.

Take `C=CC(=O)N1CCN2c3c(c(=O)n(-c4c(C)ccnc4C(C)C)c4nc(-c5c(O)cccc5F)c(Cl)cc34)NC(=O)[C@H]2C1` [Compound Z24, (4aR)-3-acryloyl-11-chloro-10-(2-fluoro-6-hydroxyphenyl)-8-(2-isopropyl-4-methylpyridin-3-yl)-2,3,4,4a,6,8-hexahydro-1H-pyrazino[1′,2′:4,5]pyrazino[2,3-c][1,8]naphthyridin-5,7-dione]: the concentration for half-maximal inhibition (IC50) in experiment [1] (Homo sapiens, A549, 120 h) amounted to 28100 nM; in experiment [2] (Homo sapiens, NCI-H358, 120 h), 3 nM; in experiment [3] (setting [5]), 113 nM; in experiment [4] (setting [7]), 9 nM; on KRas G12C, 58 nM.

Turning to `C=CC(=O)N1CCN2c3c(c(=O)n(-c4c(C)ccnc4C(C)C)c4nc(-c5c(O)cccc5F)c(Cl)cc34)N(C)C(=O)[C@H]2C1` [Compound Z25, (4aR)-3-acryloyl-11-chloro-10-(2-fluoro-6-hydroxyphenyl)-8-(2-isopropyl-4-methylpyridin-3-yl)-6-methyl-2,3,4,4a,6,8-hexahydro-1H-pyrazino[1′,2′:4,5]pyrazino[2,3-c][1,8]naphthyridin-5,7-dione], the half-maximal inhibitory concentration (IC50) came out at 28300 nM in experiment [1] (Homo sapiens, A549, 120 h); 4 nM in experiment [2] (Homo sapiens, NCI-H358, 120 h); 51 nM in experiment [3] (setting [8]); 8 nM in experiment [4] (Homo sapiens, 120 h); 60 nM at KRas G12C.

Consider `[2H]C([2H])([2H])N1C(=O)[C@H]2CN(C(=O)C=C)CCN2c2c1c(=O)n(-c1c(C)ccnc1C(C)C)c1nc(-c3c(O)cccc3F)c(Cl)cc21` [Compound Z26, (4aR)-3-acryloyl-11-chloro-10-(2-fluoro-6-hydroxyphenyl)-8-(2-isopropyl-4-methylpyridin-3-yl)-6-(methyl-d3)-2,3,4,4a,6,8-hexahydro-1H-pyrazino[1′,2′:4,5]pyrazino[2,3-c][1,8]naphthyridin-5,7-dione], for which the IC50 turned out to be 12900 nM in experiment [1]; 2 nM in experiment [2]; 39 nM in experiment [3] (setting [8]); 5 nM in experiment [4] (Homo sapiens, 120 h); 34 nM on KRas G12C.

On to `C=CC(=O)N1C[C@@H]2C(=O)N(C)c3c(c4cc(Cl)c(-c5c(O)cccc5F)nc4n(-c4c(C)ccnc4C(C)C)c3=O)N2C[C@H]1C` [Compound Z27, (2R,4aR)-3-acryloyl-11-chloro-10-(2-fluoro-6-hydroxyphenyl)-8-(2-isopropyl-4-methylpyridin-3-yl)-2,6-dimethyl-2,3,4,4a,6,8-hexahydro-1H-pyrazino[1′,2′:4,5]pyrazino[2,3-c][1,8]naphthyridin-5,7-dione], for which the 50% inhibitory concentration (IC50) in experiment [1] (Homo sapiens, A549, 120 h) was 10100 nM; in experiment [2] (Homo sapiens, NCI-H358, 120 h) it was 2 nM; in experiment [3] (setting [5]), 29 nM; in experiment [4] (setting [7]), 4 nM; at KRas G12C it was 27 nM.

As to `C=CC(=O)N1CCN2c3c(c(=O)n(-c4c(C)ccnc4C(C)C)c4nc(-c5c(O)cccc5F)c(F)cc34)N(CC)C(=O)[C@H]2C1` [Compound Z30, (4aR)-3-acryloyl-6-ethyl-11-fluoro-10-(2-fluoro-6-hydroxyphenyl)-8-(2-isopropyl-4-methylpyridin-3-yl)-2,3,4,4a,6,8-hexahydro-1H-pyrazino[1′,2′:4,5]pyrazino[2,3-c][1,8]naphthyridin-5,7-dione], the 50% inhibitory concentration (IC50) in experiment [1] (Homo sapiens, A549, 120 h) is above 30000 nM; in experiment [2] it was 51 nM; in experiment [3] (setting [5]), 676 nM; in experiment [4] (setting [7]) it was 140 nM; at KRas G12C, 656 nM.

With `C=CC(=O)N1C[C@@H]2C(=O)N(C)c3c(c4cc(C5CC5)c(-c5c(O)cccc5F)nc4n(-c4c(C)ccnc4C(C)C)c3=O)N2C[C@H]1C` [Compound Z31, (2R,4aR)-3-acryloyl-11-cyclopropyl-10-(2-fluoro-6-hydroxyphenyl)-8-(2-isopropyl-4-methylpyridin-3-yl)-2,6-dimethyl-2,3,4,4a,6,8-hexahydro-1H-pyrazino[1′,2′:4,5]pyrazino[2,3-c][1,8]naphthyridin-5,7-dione], the IC50 came out at 9490 nM in experiment [1] (Homo sapiens, A549, 120 h); 17 nM in experiment [2] (Homo sapiens, NCI-H358, 120 h); 206 nM in experiment [3] (setting [5]); 59 nM in experiment [4] (setting [7]); 151 nM on KRas G12C.

Turning to `C=CC(=O)N1C[C@@H]2C(=O)Nc3c(c4cc(F)c(-c5c(O)cccc5F)nc4n(-c4c(C)ccnc4C(C)C)c3=O)N2C[C@H]1C` [Compound Z35, (2R,4aR)-3-acryloyl-11-fluoro-10-(2-fluoro-6-hydroxyphenyl)-8-(2-isopropyl-4-methylpyridin-3-yl)-2-methyl-2,3,4,4a,6,8-hexahydro-1H-pyrazino[1′, 2′:4]pyrazino[2,3,3-c][1,8,8]naphthyridin-5-dione], the IC50 in experiment [1] (Homo sapiens, A549, 120 h) turned out to be 28200 nM; in experiment [2] it was 6 nM; in experiment [3] (setting [6]) it was 83 nM; in experiment [4] (setting [7]), 15 nM; on KRas G12C, 73 nM.

Turning to `C=CC(=O)N1CCN2c3c(c(=O)n(-c4c(C(C)C)ccnc4C(C)C)c4c(F)c(-c5c(O)cccc5F)c(Cl)cc34)N(C)C(=O)[C@H]2C1` [Compound Z37], the concentration for half-maximal inhibition (IC50) was 8570 nM in experiment [1] (Homo sapiens, A549, 120 h); 1 nM in experiment [2] (Homo sapiens, NCI-H358, 120 h); 21 nM in experiment [3] (setting [5]); 4 nM in experiment [4] (setting [7]); 20 nM on KRas G12C.

As for `C=CC(=O)N1C[C@@H]2C(=O)N(C)c3c(c4cc(Cl)c(-c5c(O)cccc5F)c(F)c4n(-c4c(C(C)C)ncnc4C(C)C)c3=O)N2C[C@H]1C` [Compound Z50], the IC50 in experiment [1] (Homo sapiens, A549, 120 h) was 28300 nM; in experiment [2] (Homo sapiens, NCI-H358, 120 h), 0.5 nM; in experiment [3] (setting [5]) it was 7 nM; in experiment [4] (setting [7]), 2 nM; on KRas G12C, 19 nM.
